Consider 23 compounds from patent publication US7563813B2, “Iminothiazolidinone derivatives as SFRP-1 antagonists” (Wyeth, priority 2005, dated 2009).

This assay addresses T1, hSFRP-1 (Homo sapiens, UniProt Q8N474).
T1 construct: expressed in transfected cells; host or cells: U2OS osteosarcoma cells (ATCC, HTB 96), transient co-transfection with Wnt 3, Wnt3A or Wnt 1, 16x TCF-tk-Luciferase reporter and CMV-beta-gal
T1 sequence (Q8N474 32-314): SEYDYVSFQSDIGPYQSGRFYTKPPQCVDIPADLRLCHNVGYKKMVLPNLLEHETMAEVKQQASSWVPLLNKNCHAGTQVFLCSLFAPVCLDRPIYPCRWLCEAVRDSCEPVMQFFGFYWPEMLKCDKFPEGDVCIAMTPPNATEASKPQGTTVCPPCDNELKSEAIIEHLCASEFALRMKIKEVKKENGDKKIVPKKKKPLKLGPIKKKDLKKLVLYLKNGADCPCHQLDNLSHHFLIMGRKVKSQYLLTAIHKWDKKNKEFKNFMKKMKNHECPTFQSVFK
As to the kind of experiment: Cell-Based Assay for In Vitro Measurement of SFRP-1/SARP2 Antagonist Activity (U2OS cells, 16x TCF-tk-Luciferase reporter, Wnt + hSFRP-1 co-transfection). The following applies: initial single dose screening at 10 μM; for fold induction at 10 µM: luciferase reporter activity, fold induction over SFRP-1 control; for Ratio: ratio not defined. The procedure: Cell-Based Assay for In Vitro Measurement of SFRP-1/SARP2 Antagonist Activity
The following cell-based assay can be used to identify inhibitors of SFRP-1.
The osteosarcoma cell line, U2OS (ATCC, HTB 96), was passaged twice a week with growth medium (McCoy's SA medium containing 10% (v/v) fetal calf serum, 2 mM GlutaMAX-1, and 1% (v/v) Penicillin-Streptomycin). The cells were maintained in vented flasks at 37° C. inside a 5% CO2/95% humidified air incubator. One day prior to transfection, the cells were plated with growth medium at 25,000 cells/well into 96-well plates and incubated at 37° C. overnight.
The growth medium was removed, and the cells were washed once with OPTIMEM I (Gibco-BRL) medium (100 μl/well) to remove the serum and antibiotics. The wash medium was removed, and the cells were re-fed with OPTI-MEM I medium (100 μl/well). For each well of cells to be transfected, the following DNA's were diluted together in 25 μl OPTI-MEM I medium: 0.1 μg 16× TCF-tk-Luciferase reporter, 0.02 μg Wnt 3, Wnt3A, Wnt 1 or empty vector (Upstate Biotechnology), 0.075 μg hSFRP-1 or empty vector (pcDNA3.1, Invitrogen), and 0.025 μg CMV-®gal (Clonetech). For each well of cells to be transfected, 1 μl of Lipofectamine 2000 reagent (Invitrogen) was diluted in 25 μl OPTI-MEM I medium and incubated at room temperature for 5 minutes. The diluted DNA's were then combined with the diluted Lipofectamine 2000 (LF2000), and the mixture was incubated at room temperature for 20 minutes. Fifty μl of the DNA-LF 2000 mixture was added to each well, and the plate(s) were incubated at 37° C. in a 5% CO2/95% humidified air incubator for 4 hours. The cells were washed once with 150 μl/well of experimental medium (phenol red-free RPMI Medium 1640 containing 2% fetal bovine serum, 2 mM GlutaMAX-1, and 1% Penicillin-Streptomycin). Finally, the cells were treated overnight at 37° C. with 200 μl/well of experimental medium containing either vehicle (typically DMSO) or diluted compound in replicates of 8 wells/compound.
Initial single dose screening of test compounds was done at 10 μM.
Dose-response experiments were initially performed with the compounds in log increases from 1-10,000 nM. From these dose-response curves, EC50 values were generated.
After treatment, the cells were washed twice with 150 μl/well of PBS without calcium or magnesium and were lysed with 50 μl/well of 1× cell culture lysis reagent (Promega Corporation) on a shaker at room temperature for 30 minutes. Thirty μl aliquots of the cell lysates were transferred to 96-well luminometer plates, and luciferase activity was measured in a MicroLumat PLUS luminometer (EG&G Berthold), or a Victor (PerkinElmer Life Sciences) using […] of luciferase substrate (Promega Corporation). Following the injection of substrate, luciferase activity was measured for 10 seconds after a 1.6 second delay. Similarly, 10 μl aliquots of the cell lysates were transferred to separate 96-well luminometer plates, and 50 μl of Galacton chemiluminescent substrate (Tropix) was added to each well. The plates were covered and incubated on a rotary shaker at room temperature for one hour. ®gal activity was measured in a MicroLumat PLUS luminometer or Victor using 100 μl/well of Light Emission Accelerator (Tropix). Following the injection of the accelerator, ®gal activity was measured for 10 seconds after a 1.6 second delay. The luciferase and ®gal activity data were transferred from the luminometer to a PC and analyzed using the SAS/Excel program. After the luciferase activity was normalized to ®gal, the SAS/Excel program was used to determine the mean and standard deviation of each treatment, to analyze the data for statistical significance, and to determine EC50 values.
As an alternative to co-transfection in a 96 well plate, the U2OS cells were transfected in T225 flasks and the transfected cells were frozen. The frozen cells were thawed and plated on a 96 well plate and the assay was carried out as detailed above. […]
(In general: A reporter such as luciferase makes a cellular process visible.)

`N=C1NC(=O)C(CC(=O)Nc2cccc(F)c2)S1` (stereo not shown) [Example 3, N-(3-fluorophenyl)-2-(2-imino-4-oxo-1,3-thiazolidin-5-yl)acetamide]: the fold induction at 10 µM came out at 1.5 and the Ratio turned out to be 1.3.

Regarding `CCOC(=O)c1c(NC(=O)CC2SC(=N)NC2=O)sc(Br)c1CN(C)c1ccc(Cl)cc1` (stereo not shown) [Example 61, ethyl 5-bromo-4-{[(4-chlorophenyl)(methyl)amino]methyl}-2-{[(2-imino-4-oxo-1,3-thiazolidin-5-yl)acetyl]amino}thiophene-3-carboxylate], the fold induction at 10 µM was determined as 0.7 and the Ratio is 1.0.

Regarding `CCOC(=O)c1cccc(NC(=O)CC2SC(=N)NC2=O)c1` (stereo not shown) [Example 25, ethyl 3-{[(2-imino-4-oxo-1,3-thiazolidin-5-yl)acetyl]amino}benzoate], the fold induction at 10 µM was determined as 1.7 and the Ratio stood at 1.4.

As for `CCOC(=O)c1c(-c2ccc(F)cc2)csc1NC(=O)CC1SC(=N)NC1=O` (stereo not shown) [Example 47, ethyl 4-(4-fluorophenyl)-2-{[(2-imino-4-oxo-1,3-thiazolidin-5-yl)acetyl]amino}thiophene-3-carboxylate], the fold induction at 10 µM is 1.1 and the Ratio came out at 1.0.

In the case of `N=C1NC(=O)C(CC(=O)Nc2ccccc2)S1` (stereo not shown) [Example 17, 2-(2-imino-4-oxo-1,3-thiazolidin-5-yl)-N-phenylacetamide], the fold induction at 10 µM came out at 1.3 and the Ratio is reported as 1.0.

With `COC(=O)c1scc(C)c1NC(=O)CC1SC(=N)NC1=O` (stereo not shown) [Example 43, methyl 3-{[(2-imino-4-oxo-1,3-thiazolidin-5-yl)acetyl]amino}-4-methylthiophene-2-carboxylate], the fold induction at 10 µM came out at 1 and the Ratio worked out at 1.0.

As to `N=C1NC(=O)C(CC(=O)NCc2cccc(Cl)c2)S1` (stereo not shown) [Example 22, N-(3-chlorobenzyl)-2-(2-imino-4-oxo-1,3-thiazolidin-5-yl)acetamide], the fold induction at 10 µM turned out to be 1.2 and the Ratio was 1.0.

On to `N=C1NC(=O)C(CC(=O)Nc2cccc(C(=O)c3ccccc3)c2)S1` (stereo not shown) [Example 27, N-(3-benzoylphenyl)-2-(2-imino-4-oxo-1,3-thiazolidin-5-yl)acetamide], for which the fold induction at 10 µM was determined as 1.8 and the Ratio worked out at 1.5.

Turning to `CCOC(=O)c1c(NC(=O)CC2SC(=N)NC2=O)sc(Br)c1CNc1ccccc1` (stereo not shown) [Example 60, Ethyl 4-(anilinomethyl)-5-bromo-2-{[(2-imino-4-oxo-1,3-thiazolidin-5-yl)acetyl]amino}thiophene-3-carboxylate], the fold induction at 10 µM turned out to be 2.7 and the Ratio is 2.4.

`CC(=O)c1cccc(NC(=O)CC2SC(=N)NC2=O)c1` (stereo not shown) [Example 30, N-(3-acetylphenyl)-2-(2-imino-4-oxo-1,3-thiazolidin-5-yl)acetamide]: the fold induction at 10 µM was 1.2 and the Ratio is 1.1.

In the case of `N=C1NC(=O)C(CC(=O)Nc2cccc(Oc3ccccc3)c2)S1` (stereo not shown) [Example 26, 2-(2-imino-4-oxo-1,3-thiazolidin-5-yl)-N-(3-phenoxyphenyl)acetamide], the fold induction at 10 µM was found to be 1.5 and the Ratio is given as 1.4.

Turning to `CCOC(=O)c1c(NC(=O)CC2SC(=N)NC2=O)sc2c1CCC2` (stereo not shown) [Example 44, ethyl 2-{[(2-imino-4-oxo-1,3-thiazolidin-5-yl)acetyl]amino}-5,6-dihydro-4H-cyclopenta[b]thiophene-3-carboxylate], the fold induction at 10 µM stood at 1.6 and the Ratio is 1.5.

For the compound `COC(=O)c1cc(-c2ccccc2)sc1NC(=O)CC1SC(=N)NC1=O` (stereo not shown) [Example 56, methyl 2-{[(2-imino-4-oxo-1,3-thiazolidin-5-yl)acetyl]amino}-5-phenylthiophene-3-carboxylate], the fold induction at 10 µM was determined as 0.9 and the Ratio is reported as 0.9.

For `CCOC(=O)c1c(NC(=O)CC2SC(=N)NC2=O)sc(C)c1-c1ccccc1` (stereo not shown) [Example 48, ethyl 2-{[(2-imino-4-oxo-1,3-thiazolidin-5-yl)acetyl]amino}-5-methyl-4-phenylthiophene-3-carboxylate], the fold induction at 10 µM was determined as 1.6 and the Ratio was 1.8.

On to `N=C1NC(=O)C(CC(=O)NCc2ccc(Cl)cc2)S1` (stereo not shown) [Example 21, N-(4-chlorobenzyl)-2-(2-imino-4-oxo-1,3-thiazolidin-5-yl)acetamide], for which the fold induction at 10 µM was found to be 1.2 and the Ratio is listed as 1.0.

For the compound `N=C1NC(=O)C(CC(=O)Nc2ccc(F)c(F)c2)S1` (stereo not shown) [Example 9, N-(3,4-difluorophenyl)-2-(2-imino-4-oxo-1,3-thiazolidin-5-yl)acetamide], the fold induction at 10 µM worked out at 1.6 and the Ratio turned out to be 1.5.

Consider `CCOC(=O)c1c(NC(=O)CC2SC(=N)NC2=O)sc2c1CCCC2` (stereo not shown) [Example 35, ethyl 2-{[(2-imino-4-oxo-1,3-thiazolidin-5-yl)acetyl]amino}-4,5,6,7-tetrahydro-1-benzothiophene-3-carboxylate], for which the fold induction at 10 µM came to 1.4 and the Ratio was found to be 1.6.

As to `N=C1NC(=O)C(CC(=O)NCc2ccccc2C(F)(F)F)S1` (stereo not shown) [Example 20, 2-(2-imino-4-oxo-1,3-thiazolidin-5-yl)-N-[2-(trifluoromethyl)benzyl]acetamide], the fold induction at 10 µM was determined as 1.2 and the Ratio is recorded as 1.1.

With `CSc1cccc(NC(=O)CC2SC(=N)NC2=O)c1` (stereo not shown) [Example 15, 2-(2-imino-4-oxo-1,3-thiazolidin-5-yl)-N-[3-(methylthio)phenyl]acetamide], the fold induction at 10 µM was determined as 1.5 and the Ratio was 1.2.

On to `CCOC(=O)c1c(NC(=O)CC2SC(=N)NC2=O)sc(-c2ccccc2)c1C` (stereo not shown) [Example 58, ethyl 2-{[(2-imino-4-oxo-1,3-thiazolidin-5-yl)acetyl]amino}-4-methyl-5-phenylthiophene-3-carboxylate], for which the fold induction at 10 µM was found to be 0.7 and the Ratio came out at 0.7.

Consider `N=C1NC(=O)C(CC(=O)Nc2cccc(OC(F)(F)F)c2)S1` (stereo not shown) [Example 31, 2-(2-imino-4-oxo-1,3-thiazolidin-5-yl)-N-[3-(trifluoromethoxy)phenyl]acetamide], for which the fold induction at 10 µM worked out at 1.7 and the Ratio is reported as 1.5.

`CCOC(=O)c1c(-c2ccco2)csc1NC(=O)CC1SC(=N)NC1=O` (stereo not shown) [Example 46, ethyl 4-(2-furyl)-2-{[(2-imino-4-oxo-1,3-thiazolidin-5-yl)acetyl]amino}thiophene-3-carboxylate]: the fold induction at 10 µM amounted to 1.1 and the Ratio is 1.0.

Regarding `COC(=O)c1c(NC(=O)CC2SC(=N)NC2=O)sc2c1CCC(OC)C2` (stereo not shown) [Example 37, methyl 2-{[(2-imino-4-oxo-1,3-thiazolidin-5-yl)acetyl]amino}-6-methoxy-4,5,6,7-tetrahydro-1-benzothiophene-3-carboxylate], the fold induction at 10 µM turned out to be 1.5 and the Ratio stood at 1.7.

What is called fold induction is the ratio of treated to control signal.
